Source: paper PMC12238723, “Phase I Clinical Trial of CVL218, a Novel PARP1/2 Inhibitor, in Patients with Advanced Solid Tumors” (MedComm, 2025)

Test: Plasma PK after multiple oral doses (Cycle 1 Day 28)
Type: in vivo, patients
Method: The period during which patients received a single dose is designated as cycle 0 (C0), lasting 72 h. After this period, patients begin multiple dosing, referred to as cycle 1 (C1). An initial accelerated titration design was employed for the three lowest dose groups, and the “3+3” design was applied starting with the 300 mg BID cohort. […] Single-dose and multiple-dose PK parameters included C max, T max, elimination half-life (T 1/2), AUC0- t , AUC0-inf, oral clearance (CL/F), and apparent volume of distribution (V z/F) for CVL218. Tumor response was assessed per RECIST 1.1. ORR was defined as proportion of patients with a CR or PR on at least one visit, while DCR was defined as proportion of patients with a CR or PR or SD. PFS was defined as the time from the first dose of either drug to investigator assessed radiologic PD or to death of any cause. PFS would be censored at the time of last tumor assessment. Subjects who received at least one dose of CVL218 with postadministration safety records were included in safety analysis set. Subjects who received at least one dose of CVL218 with at least one evaluable PK parameter were included in PK analysis set. Per-protocol set were used for efficacy analysis. Descriptive statistics of safety were presented per CTCAE v5.0. The PK parameters T max and T 1/2 were shown as the median (min, max) and mean ± SD, respectively. A two-sided p < 0.05 was considered to indicate statistical significance. Statistical analysis was performed by using GraphPad prism 8.0.2 and R-4.3.3.

[1] = multiple doses C1D28, 50mg BID, n 1
[2] = multiple doses C1D28, 100mg BID, n 1
[3] = multiple doses C1D28, 200mg BID, n 1
[4] = multiple doses C1D28, 350mg BID, n 4
[5] = multiple doses C1D28, 500mg BID, n 4
[6] = multiple doses C1D28, 600mg BID, n 4
[7] = multiple doses C1D28, 700mg BID, n 6
[8] = multiple doses C1D28, 850mg BID, n 5

CNCc1ccc(-c2cc3cc(F)cc(C(N)=O)c3o2)cc1.Cl [CVL218]
AUC0-24, Geometric Mean [1]: 70.9 ng·h/mL
AUC0-t, Geometric Mean [1]: 77.9 ng·h/mL
AUC_TAU, Mean [1]: 70.9 ng·h/mL
Cavgss, Mean [1]: 5.91 ng/mL
Cl/F, Geometric Mean [1]: 705000.0 mL/h
Cmax, Geometric Mean [1]: 15.6 ng/mL
Cminss, Mean [1]: 0 ng/mL
Vz/F, Geometric Mean [1]: 6870000.0 mL
AUC0-24, Geometric Mean [2]: 822.0 ng·h/mL
AUC0-t, Geometric Mean [2]: 1930.0 ng·h/mL
AUC_TAU, Mean [2]: 822 ng·h/mL
Cavgss, Mean [2]: 68.5 ng/mL
Cl/F, Geometric Mean [2]: 122000.0 mL/h
Cmax, Geometric Mean [2]: 148.0 ng/mL
Cminss, Mean [2]: 38 ng/mL
Vz/F, Geometric Mean [2]: 1750000.0 mL
AUC0-24, Geometric Mean [3]: 808.0 ng·h/mL
AUC0-t, Geometric Mean [3]: 1360.0 ng·h/mL
AUC_TAU, Mean [3]: 808 ng·h/mL
Cavgss, Mean [3]: 67.3 ng/mL
Cl/F, Geometric Mean [3]: 248000.0 mL/h
Cmax, Geometric Mean [3]: 156.0 ng/mL
Cminss, Mean [3]: 28.6 ng/mL
Vz/F, Geometric Mean [3]: 4780000.0 mL
AUC0-24, Geometric Mean [4]: 2230.0 ng·h/mL
AUC0-inf, Geometric Mean [4]: 5860.0 ng·h/mL
AUC0-t, Geometric Mean [4]: 4750.0 ng·h/mL
AUC_TAU, Mean [4]: 2170 ng·h/mL
Cavgss, Mean [4]: 181 ng/mL
Cl/F, Geometric Mean [4]: 157000.0 mL/h
Cmax, Geometric Mean [4]: 313.0 ng/mL
Cminss, Mean [4]: 72.2 ng/mL
T1/2, Mean [4]: 5.4 h
Vz/F, Geometric Mean [4]: 1400000.0 mL
AUC0-24, Geometric Mean [5]: 3210.0 ng·h/mL
AUC0-inf, Geometric Mean [5]: 6920.0 ng·h/mL
AUC0-t, Geometric Mean [5]: 6830.0 ng·h/mL
AUC_TAU, Mean [5]: 3870 ng·h/mL
Cavgss, Mean [5]: 323 ng/mL
Cl/F, Geometric Mean [5]: 158500.0 mL/h
Cmax, Geometric Mean [5]: 562.5 ng/mL
Cminss, Mean [5]: 177 ng/mL
T1/2, Mean [5]: 4.1 h
Vz/F, Geometric Mean [5]: 1380000.0 mL
AUC0-24, Geometric Mean [6]: 1880.0 ng·h/mL
AUC0-inf, Geometric Mean [6]: 7700.0 ng·h/mL
AUC0-t, Geometric Mean [6]: 2560.0 ng·h/mL
AUC_TAU, Mean [6]: 2810 ng·h/mL
Cavgss, Mean [6]: 234 ng/mL
Cl/F, Geometric Mean [6]: 318000.0 mL/h
Cmax, Geometric Mean [6]: 311.0 ng/mL
Cminss, Mean [6]: 118 ng/mL
T1/2, Mean [6]: 5.1 h
Vz/F, Geometric Mean [6]: 2440000.0 mL
AUC0-24, Geometric Mean [7]: 3830.0 ng·h/mL
AUC0-inf, Geometric Mean [7]: 4170.0 ng·h/mL
AUC0-t, Geometric Mean [7]: 3830.0 ng·h/mL
AUC_TAU, Mean [7]: 4450 ng·h/mL
Cavgss, Mean [7]: 371 ng/mL
Cl/F, Geometric Mean [7]: 183000.0 mL/h
Cmax, Geometric Mean [7]: 660.0 ng/mL
Cminss, Mean [7]: 127 ng/mL
T1/2, Mean [7]: 3.9 h
Vz/F, Geometric Mean [7]: 1090000.0 mL
AUC0-24, Geometric Mean [8]: 5150.0 ng·h/mL
AUC0-inf, Geometric Mean [8]: 2940.0 ng·h/mL
AUC0-t, Geometric Mean [8]: 5150.0 ng·h/mL
AUC_TAU, Mean [8]: 5150 ng·h/mL
Cavgss, Mean [8]: 429 ng/mL
Cl/F, Geometric Mean [8]: 230000.0 mL/h
Cmax, Geometric Mean [8]: 776.0 ng/mL
Cminss, Mean [8]: 194 ng/mL
T1/2, Mean [8]: 4.4 h
Vz/F, Geometric Mean [8]: 1532500.0 mL
median Tmax (multiple doses, range over cohorts): 1 to 3 h
mean half-life (multiple oral doses, range over cohorts): 3.9 to 5.4 h
median Tmax (recommended dose of 700 mg BID): 2 h
